US7786129B2, “Piperazine derivatives of dialkyl oxindoles” (Egis Gyogyszergyar Nyrt, priority 2004, dated 2010)
Counter-ions that a name gives are not always drawn.

CCC1(CCCCCCN2CCN(c3cccc(Cl)c3)CC2)C(=O)Nc2ccccc21.Cl (centres unmarked)
melting point: 124 to 127 °C

CCC1(CCCCN2CCN(c3cccc(Cl)c3)CC2)C(=O)Nc2ccccc21 (centres unmarked) (as salt: HCl) (hydrate or solvate) [Example 60, 3-{4-[4-(3-Chlorophenyl)-piperazin-1-yl]-butyl}-3-ethyl-1,3-dihydro-2H-indol-2-one-H2O—HCl-isopropanol (1:1:1:1)]
melting point: 109 to 111 °C

CCC1(CCCCN2CCN(c3cccc(Cl)c3)CC2)C(=O)Nc2ccc(F)cc21 (centres unmarked) (as salt: hydrochloride) [Example 85, 3-{4-[4-(3-Chlorophenyl)-piperazin-1-yl]-butyl}-3-ethyl-5-fluoro-1,3-dihydro-2H-indol-2-one mono-hydrochloride]
melting point: 121 to 124 °C

CCC1(CCCCN2CCN(c3cccc(Cl)c3)CC2)C(=O)Nc2cc(F)c(Cl)cc21 (centres unmarked) (as salt: hydrochloride) [Example 89, 5-Chloro-3-{4-[4-(3-chlorophenyl)-piperazin-1-yl]-butyl}-3-ethyl-6-fluoro-1,3-dihydro-2H-indol-2-one monohydrochloride]
melting point: 237 to 239 °C

CCC1(CCCCN2CCN(c3ccc(Cl)c(C(F)(F)F)c3)CC2)C(=O)Nc2ccccc21 (centres unmarked) (as salt: hydrochloride) [Example 96, 3-{4-[4-(4-Chloro-3-trifluoromethyl-phenyl)-piperazin-1-yl]-butyl}-3-ethyl-1,3-dihydro-2H-indol-2-one monohydrochloride]
melting point: 204 to 206 °C

CCC1(CCCCN2CCN(c3cccc(Cl)c3)CC2)C(=O)Nc2ccc(Br)cc21 (centres unmarked) (as salt: oxalate) [Example 61, 5-Bromo-3-{4-[4-(3-chlorophenyl)-piperazin-1-yl]-butyl}-3-ethyl-1,3-dihydro-2H-indol-2-one monooxalate]
melting point: 200 to 202 °C

CCC1(CCCCN2CCN(c3ccccc3)CC2)C(=O)Nc2ccccc21 (centres unmarked) (as salt: oxalate) [Example 68, 3-[4-(4-Phenylpiperazin-1-yl)-butyl]-3-ethyl-1,3-dihydro-2H-indol-2-one monooxalate]
melting point: 121 to 123 °C

CCC1(CCCCN2CCN(c3cccc(Cl)c3)CC2)C(=O)Nc2ccc(S(N)(=O)=O)cc21 (centres unmarked) (as salt: oxalate) [Example 72, 3-{4-[4-(3-Chlorophenyl)-piperazin-1-yl]-butyl}-3-ethyl-1,3-dihydro-2H-indol-2-one 5-sulfonamide monooxalate]
melting point: 188 to 190 °C

CCC1(CCCN2CCN(c3ccccn3)CC2)C(=O)Nc2ccccc21 (centres unmarked) [Example 58, 3-Ethyl-3-[3-(4-pyridin-2-yl-piperazin-1-yl)-propyl]-1,3-dihydro-2H-indol-2-one]
melting point: 122 to 124 °C

CCC1(CCCCN2CCN(c3ccccn3)CC2)C(=O)Nc2ccc(Cl)cc21 (centres unmarked) [Example 66, 5-Chloro-3-ethyl-3-[4-(4-pyridin-2-yl-piperazin-1-yl)-butyl]-1,3-dihydro-2H-indol-2-one]
melting point: 154 to 156 °C

CCC1(CCCCN2CCN(c3cccc(Cl)c3)CC2)C(=O)Nc2ccc(Cl)cc21 (centres unmarked) [Example 67, 5-Chloro-3-{4-[4-(3-chlorophenyl)-piperazin-1-yl]-butyl}-3-ethyl-1,3-dihydro-2H-indol-2-one]
melting point: 139 to 142 °C

CCC1(CCCCN2CCN(c3ccc(Cl)cc3)CC2)C(=O)Nc2ccc(C)cc21 (centres unmarked) [Example 73, 3-{4-[4-(4-Chlorophenyl)-piperazin-1-yl]-butyl}-3-ethyl-5-methyl-1,3-dihydro-2H-indol-2-one]
melting point: 175 to 177 °C

CCC1(CCCCN2CCN(c3ccc(OC)cc3)CC2)C(=O)Nc2ccccc21 (centres unmarked) [Example 74, 3-Ethyl-3-{4-[4-(4-methoxyphenyl)-piperazin-1-yl]-butyl}-1,3-dihydro-2H-indol-2-one]
melting point: 109 to 110 °C

CCC1(CCCCN2CCN(c3cccc(Cl)c3)CC2)C(=O)Nc2cc(F)ccc21 (centres unmarked) [Example 77, 3-{4-[4-(3-Chlorophenyl)-piperazin-1-yl]-butyl}-3-ethyl-6-fluoro-1,3-dihydro-2H-indol-2-one]
melting point: 116 to 117 °C
